Laboratory results as given in EP2573089A1, “Novel artmisinin derivatives” (Spago Imaging AB, priority 2011, dated 2013).

Format: physicochemical
Conditions: for area of the main peak has decreased: after 72h at pH = 2.3, sodiumphosphate buffer, HPLC-ELSD
Procedure: Example 11. The acid stability of four dihydroartemisinin (DHA) derivatives was investigated. […] Phenomex Luna; 50 x 4.6 mm, 3 μ C18. ACN/H2O; 60/40 at 1.0 ml/min DHA dissolved in mob. phase to give 0,21 mg/ml Compound of formula 1, n=4 (3PEG-DHA) dissolved in H2O to give 0.48 mg/ml in 0.1 M buffer. […] Artemisone dissolved in mob. phase to give 0.20 mg/ml in 0.1 M buffer, Artesunate dissolved in mob. phase to give 0.24 mg/ml in 0.1 M buffer. 20 μ[…]

Row | degradation | degraded (72 h, 0.24 mg/ml, pH 2.3) | area of the main peak has decreased | Structure (SMILES)
1 | No sign of degradation | 41% | about 40% | C[C@H]1[C@H](OC(=O)CCC(=O)O)O[C@@H]2O[C@@]3(C)CC[C@H]4[C@H](C)CC[C@@H]1[C@@]24OO3 [artesunate]
2 | No sign of degradation | – | about 71% | C[C@H]1[C@H](N2CCS(=O)(=O)CC2)O[C@@H]2O[C@@]3(C)CC[C@H]4[C@H](C)CC[C@@H]1[C@@]24OO3 [artemison, artemisone]
